The results in this text go back to patent US11400054B2, “Method for treating an autoimmune neurological disease and/or neurodegenerative disease and pharmaceutical formulations for a liquid dosage form and a controlled release dosage form” (INDUSTRIAL TECHNOLOGY RESEARCH INSTITUTE, priority 2017, dated 2022).

Series [1] has as its system LPS-induced IL-6 expression in BV-2 cells. As to the kind of experiment: LPS-induced IL-6 expression in BV-2 cells (IL-6 ELISA). The note with it: Mus musculus, compound 1 hour then LPS 100 ng/mL, 24 hours. In kind it is cell-based. As to the method:
(§1) BV-2 cells (8×10^3 cells/mL) were seeded in a 96-well plate cultured under 37° C., 5% CO2 overnight. The cells were divided into a naïve group (without any treatment), a control group (only treated with LPS) and experimental groups (treated with LPS and a testing compound).
(§2) The supernatant in the well was removed. After that, different concentrations of a testing compound was added to the cells to react with the cells for 1 hour (culture medium was added to the cells for a control group), and then LPS (100 ng/mL) was added to the cell.
After reacting for 24 hours, the supernatant in the plate was taken and IL-6 expressing amount was detected by Mouse IL-6 ELISA Ready-SET-Go (Invitrogen; Cat. No. 88-7064-88) according to the manufacturer's recommended procedure.
(§3) CC50 value for cell viability of a testing compound and IC50 value for IL-6 expression of a testing compound were calculated based on cell viabilities at different concentrations of the testing compound and IL-6 expression amounts of the cells at different concentrations of the testing compound, respectively.
On the technique in general: An ELISA detects its analyte on a solid surface through an enzyme-linked reagent.

The nature of series [2]: Cell viability of BV-2 cells (MTT). The note with it: mouse, LPS 100 ng/mL. The format is cell-based. As to the method:
as §1, §2
Moreover, 50 μl of culturing medium containing MTT (0.5 mg/mL) was added to the cell part in the plate and cultured under 37° C. and 5% CO2 for 90 minutes, and then 150 μL DMSO was added to the plate and the plate was shaken for 5-10 minutes. Finally, OD570 was read by a continuous wavelength microplate analyzer, and cell viability was calculated using the following formula: Cell viability (%)=(OD value of the experimental group/OD value of the control group)×100.
as §3

The subject of series [3] is MOG induced IFN-γ secretion in splenocyte. Description: MOG induced IFN-γ secretion in splenocyte isolated from mice of EAE model (ELISA). The format is cell-based, C57BL/6 mice. The conditions noted are these: Mus musculus, 20 μg/ml MOG peptide, 48 hours; for inhibition at 300 µM: concentration 300 μM; for inhibition at 200 µM: concentration 200 μM; for inhibition at 100 µM: concentration 100 μM. The protocol: (§4) EAE was induced in C57BL/6 mice. The mice were immunized on Day 0 by subcutaneous injection with 200 μg of myelin oligodendrocyte glycoprotein (MOG) in […] containing 400 μg of heat-killed Mycobaterium tuberculosis H37Ra. Pertussis toxin (500 ng) was intraperitoneally injected on Day 0 and Day 2 after the mice were immunized with the emulsion. The mice were sacrifice on Day 30 post-immunization. Spleens of the mice were harvest and then splenocytes were isolated and cultured in presence or absence of the 20 μg/ml MOG peptide in 10% FBS RPMI1640 medium. Testing compound was added to the culture and maintained at 37° C. 5% CO2 for 48 hours. The concentrations of IFN-γ and IL-2 in the supernatant of the culture were determined by ELISA according to the manufacturer's instructions.

Series [4] has as its system MOG induced IL-2 secretion in splenocyte. As to the kind of experiment: MOG induced IL-2 secretion in splenocyte isolated from mice of EAE model (ELISA). The note with it: Mus musculus, 20 μg/ml MOG peptide, 48 hours; for inhibition at 300 µM: concentration 300 μM; for inhibition at 200 µM: concentration 200 μM; for inhibition at 100 µM: concentration 100 μM. The format is cell-based, C57BL/6 mice. The protocol: as §4

Series [5] has as its system EAE induced mice. As to the kind of experiment: Therapeutic administration experiment in EAE induced mice, EAE score. The format is in vivo, C57BL/6 mice. The note with it: 14 days after onset.
Series [6] relates to spinal cords of the EAE induced mice. As to the kind of experiment: Histology of spinal cord lesions in EAE induced mice (H&E, Luxol fast blue). The format is in vivo, C57BL/6 mice. The note with it: 100 mg/kg three times a day, day 15 after onset. The protocol:
The mice were euthanized at day 15 post to onset of EAE. Spinal cord was removed and fixed in 10% phosphate-buffered formaldehyde. Paraffin-embedded 3 μm-thick cross sections of spinal cord were stained with hematoxylin and eosin in order to confirm tissue lesion. Another slides were stained with Luxol fast blue for examination of demyelination. Lesions were evaluated based on demyelination, inflammation, axonal swelling and gliosis which are scored based on the criteria shown in Table 2: […]

For series [7], the system named is EAE induced mice. As to the kind of experiment: Prophylaxis administration experiment in EAE induced mice, EAE score. In kind it is in vivo, C57BL/6 mice. The conditions noted are these: 100 mg/kg one time a day from Day 7 after induction, 14 days; vs vehicle (FIG. 10).

Molecules are shown by their SMILES.

With `C[C@@H]1CC[C@H](C(C)(C)O)C[C@H]1O` [TMUS-0503-H4], the IC50 (usually the concentration at which inhibition is half-maximal) in series [1] was in the range of 30 to 100 µM. The CC50 – broadly, the concentration that lowers cell viability or growth by half – at 24 h in series [2] was over 100 µM. In addition, the inhibition (as a rule, the relative decrease from the control value, in per cent) at 300 µM was 42% in series [3] and 19% in series [4].
The compound `CC1=CC[C@@H](C(C)(C)O)C[C@@H]1OCc1ccccc1` [TMUS-0503-b1] displayed an IC50 in series [1] of under 10 µM. Also, the CC50 at 24 h in series [2] was over 100 µM. Moreover, the inhibition at 300 µM in series [3] amounted to 20%; in series [4] it was 15%.
Turning to `CC1=CC[C@H](C(C)(C)O)C[C@H]1O` [SK1, (+) trans-Sobrerol], the inhibition at 200 µM in series [3] was 24%; in series [4], 0%.
`CC1=CCC(C(C)(C)O)CC1=O` (stereo not shown) [TMUS-0503-o1] came in with an IC50 in series [1] of under 10 µM. The CC50 at 24 h in series [2] is over 100 µM. The inhibition at 200 µM came to 56% in series [3] and 40% in series [4].
The compound `COc1ccc(C(=O)O[C@H]2C[C@H](C(C)(C)O)CC=C2C)cc1` [TMUS-0124-4e] had an IC50 in series [1] of 50.8 µM. For the same compound, in series [2], the CC50 at 24 h was over 100 µM. Further, the figures for the inhibition at 100 µM in series [3] and in series [4] were 86% and 59%, respectively.
For `C[C@H]1CC[C@H](C(C)(C)O)C[C@H]1O` [TMUS-0503-H3], in series [1], the IC50 was in the range of 30 to 100 µM. Further, in series [2], the CC50 at 24 h is over 100 µM.
Compound `CCCCCC(=O)O[C@H]1C[C@H](C(C)(C)O)CC=C1C` [TMUS-0124-4f] came in with an IC50 in series [1] of 38 µM. This compound registered a CC50 at 24 h in series [2] of over 100 µM. Moreover, the inhibition at 200 µM in series [3] stood at 59%; in series [4] it was 8%.
For `CC1=CC[C@@H](C(C)(C)O)C[C@@H]1OC(=O)CCc1ccccc1` [TMUS-0124-4c] the same measures were 38.2 µM, over 100 µM, 78% and 23%.
As to `CC1=CCC(C(C)(C)O)CC1O` (stereo not drawn) [SK0, (+)(−) trans-Sobrerol, reference compound], the inhibition at 300 µM in series [3] was 10%; in series [4], 16%. In addition, the “EAE score (symptoms of EAE)” value in the series with EAE induced mice [5] (100 mg/kg one time a day, 15, 50, 100 mg/kg BID, vs vehicle (FIGS. 8A, 8B)) is reported as “significantly alleviating symptoms of EAE”.
For the compound `CC1=CCC2CC1OC2(C)C` (stereo not shown) [TMUS-0503-c1], the IC50 in series [1] was 30 to 100 µM. Also, in series [2], the CC50 at 24 h was over 100 µM. Besides, the inhibition at 300 µM is 23% in series [3] and 22% in series [4].
In turn, `CC1(C)OC2CC1CC1OC21C` (stereo not shown) [TMUS-0503-c2] registered an IC50 in series [1] of 30 to 100 µM. In series [2], this compound yielded a CC50 at 24 h of over 100 µM. The figures for the inhibition at 100 µM in series [3] and in series [4] were 31% and 13%, respectively.
Regarding `CO[C@H]1C[C@H](C(C)(C)O)CC=C1C` [TMUS-0503-m1], the IC50 in series [1] is under 10 µM. The compound also came in with a CC50 at 24 h in series [2] of over 100 µM. For the same compound, the figures for the inhibition at 100 µM in series [3] and in series [4] were 17% and 21%, respectively.
In series [1], `CC1CCC(C(C)(C)O)CC1=O` (stereo not shown) [TMUS-0503-H2] returned an IC50 of under 10 µM. This compound also had a CC50 at 24 h in series [2] of over 100 µM. The inhibition at 100 µM in series [3] was found to be 33%; in series [4] it was 16%.
In series [1], `CC1=CC[C@@H](C(C)(C)O)C[C@@H]1OC(=O)c1ccc([N+](=O)[O-])cc1` [TMUS-0124-4d] had an IC50 of 48.1 µM. The compound also displayed a CC50 at 24 h in series [2] of over 100 µM. Besides, the results for the inhibition at 200 µM in series [3] and in series [4] were 79% and 22%, respectively.
In series [1], `CC1=CC[C@@H](C(C)(C)O)C[C@@H]1O` [SK2, (−) trans-sobrerol] returned an IC50 of 183 ± 21.8 µM. Besides, the CC50 at 24 h in series [2] is over 200 µM. For the same compound, the inhibition at 200 µM in series [3] came to 34%; in series [4] it was 0%. The “EAE score (symptoms of EAE)” value is listed as “significantly alleviating symptoms of EAE” in the series on EAE induced mice [5] (30, 100 mg/kg one time a day, 50, 100 mg/kg BID, 10-100 mg/kg TID, vs vehicle (FIGS. 5A-5C)) and “significantly alleviating symptoms of EAE” with EAE induced mice [7]. Also, the “axonal swelling in spinal cords” value in series [6] (vs vehicle (FIG. 7B)) was “effectively alleviating”. Moreover, in series [6] (vs vehicle (FIG. 7C)), the “inflammation in spinal cords” value is reported as “effectively alleviating”. The “gliosis in spinal cords” value in series [6] (vs vehicle (FIG. 7D)) is “effectively alleviating”. Besides, the “demyelination in spinal cords” value in series [6] (vs vehicle (FIGS. 6, 7A)) is “effectively alleviating”.
